Source: US20110319461A1, “NOVEL SALTS, POLYMORPHS, AND SYNTHETIC PROCESSES REGARDING IMIDAZOLE DERIVATIVE” (Ore Pharmaceuticals Inc., priority 2010, published 2011)
Read-outs that look alike come from different tables or passages of the source. Values belong to the compound of their own block, whether it stands above or below them.

Assays:
[1] = tested on: upper gastrointestinal tract of the mouse; assay: Anti-inflammatory effects in the upper gastrointestinal tract; assay type: in vivo
[2] = tested on: acute dextran sodium sulfate-induced colitis in mice; assay: Acute dextran sodium sulfate (DSS)-induced colitis; assay type: in vivo; settings: for DSS-induced colon shortening: high dose Compound (I) and sulfasalazine
Text: 2-[1-(S)-carboxy-2(S)-[3-(3,5-dichloro-benzyl)-3H-imidazol-4-yl]-ethylamino]-4-methyl-pentanoic acid, herein also referred to as Compound (I), is described in U.S. Pat. No. 6,632,830, U.S. Pat. No. 7,045,532, and WO 00/066104, each herein incorporated by reference in their entirety. Additionally, Compound (I) is discussed in “Substrate-Based Design of the First Class of Angiotensin-Converting Enzyme-Related Carboxypeptidase (ACE2) Inhibitors”, Dales, N. A., et al., J. Amer. Chem. Soc., 2002, 124, 11852-11853, incorporated by reference. As reported by Byrnes et al., Effects of the ACE2 inhibitor GL1001 on acute dextran sodium sulfate-induced colitis in mice, Inflamm. […] Doses of Compound (I) ameliorated DSS-induced disease activity, including rectal prolapsed and intestinal bleeding. […] Compound (I) provides therapeutic potential for inflammatory bowel disease.
Exposure to DSS prior to vehicle treatment (vehicle+DSS group) produced a time-dependent decrease in body weight that recovered by day 15. This body weight loss and recovery was similar in animals having received repeated doses of Compound (I) (300 mg/kg).
Disease activity index (DAI), namely rectal prolapsed, stool consistency, and fecal occult blood) was assessed every other day throughout the experiment. By experimental day 7, significant DSS-induced disease began to emerge, and trends toward recovery were observed by day 11. Statistical analyses were conducted on data obtained on the days of peak severity: day 7 (presence of fecal blood and diarrhea) and day 9 (rectal prolapse). All DAI data were analyzed by one-way ANOVA. Compared to non-DSS controls, DSS treatment markedly elevated scores for fecal occult blood, stoll consistency, and rectal prolapsed. These effects were attenuated by Compound (I) (300 mg/kg).
On experimental day 15, colon was obtained from each animal and length was measured. […] No effects of 30 or 100 mg/kg on DSS-induced colon shrinkage were observed (P>0.05 for all). Total histopathology score (inflammation+glandular epithelial loss+mucosal erosion) for each treatment group is represented with a maximum obtainable score of 15. One-way ANOVA indicated significant DSS_induced damage (vs. non-DSS control) in each region studied, with the most damage occurring in the distal colon.

[3] = tested on: NSAID-induced gastric damage in rats; assay: NSAID-induced gastric damage; assay type: in vivo
[4] = Storage stability of the drug substance; assay type: physicochemical
[5] = tested on: acute dextran sodium sulfate-induced colitis in mice; settings: as reported by Byrnes et al., cited from earlier work
[6] = Water solubility; assay type: physicochemical
[7] = target: T1, CPDA (Bos taurus, UniProt P00730); settings: per Dales et al.; read-out: IC50 against CPDA (selectivity); cited from earlier work
T1 sequence (P00730 111-419): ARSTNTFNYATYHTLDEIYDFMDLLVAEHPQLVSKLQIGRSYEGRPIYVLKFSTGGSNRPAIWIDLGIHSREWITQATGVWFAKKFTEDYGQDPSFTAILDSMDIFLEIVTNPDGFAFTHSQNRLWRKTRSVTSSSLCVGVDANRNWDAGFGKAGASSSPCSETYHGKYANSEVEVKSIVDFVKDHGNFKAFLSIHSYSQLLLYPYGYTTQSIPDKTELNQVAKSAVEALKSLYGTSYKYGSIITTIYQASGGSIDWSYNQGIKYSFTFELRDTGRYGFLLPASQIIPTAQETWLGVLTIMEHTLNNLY

[8] = target: ACE (Homo sapiens, UniProt P12821); settings: per Dales et al.; read-out: IC50 against ACE (selectivity); cited from earlier work
ACE, sequence (P12821 1-732 isoform P12821-3): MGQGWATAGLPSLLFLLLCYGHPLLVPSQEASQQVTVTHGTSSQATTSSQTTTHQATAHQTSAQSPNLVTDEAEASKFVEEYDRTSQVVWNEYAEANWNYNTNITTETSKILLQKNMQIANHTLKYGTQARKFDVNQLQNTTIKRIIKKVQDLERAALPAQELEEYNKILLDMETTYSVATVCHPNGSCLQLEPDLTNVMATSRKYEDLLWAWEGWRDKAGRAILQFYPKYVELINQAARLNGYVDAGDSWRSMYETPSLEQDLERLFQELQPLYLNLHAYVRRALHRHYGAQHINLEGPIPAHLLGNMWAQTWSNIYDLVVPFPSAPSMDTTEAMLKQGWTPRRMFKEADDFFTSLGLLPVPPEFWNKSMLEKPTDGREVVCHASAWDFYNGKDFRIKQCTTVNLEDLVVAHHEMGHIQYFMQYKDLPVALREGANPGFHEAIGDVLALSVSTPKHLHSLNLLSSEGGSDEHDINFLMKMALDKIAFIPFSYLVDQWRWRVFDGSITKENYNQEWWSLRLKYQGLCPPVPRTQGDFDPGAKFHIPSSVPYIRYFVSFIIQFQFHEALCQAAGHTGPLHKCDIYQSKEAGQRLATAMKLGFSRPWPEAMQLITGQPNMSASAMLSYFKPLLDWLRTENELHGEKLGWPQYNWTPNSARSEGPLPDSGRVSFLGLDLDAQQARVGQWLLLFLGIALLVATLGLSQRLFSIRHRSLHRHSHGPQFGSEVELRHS

[9] = target: ACE2 (Homo sapiens, UniProt Q9BYF1); settings: cited from earlier work
ACE2, sequence (Q9BYF1 18-805): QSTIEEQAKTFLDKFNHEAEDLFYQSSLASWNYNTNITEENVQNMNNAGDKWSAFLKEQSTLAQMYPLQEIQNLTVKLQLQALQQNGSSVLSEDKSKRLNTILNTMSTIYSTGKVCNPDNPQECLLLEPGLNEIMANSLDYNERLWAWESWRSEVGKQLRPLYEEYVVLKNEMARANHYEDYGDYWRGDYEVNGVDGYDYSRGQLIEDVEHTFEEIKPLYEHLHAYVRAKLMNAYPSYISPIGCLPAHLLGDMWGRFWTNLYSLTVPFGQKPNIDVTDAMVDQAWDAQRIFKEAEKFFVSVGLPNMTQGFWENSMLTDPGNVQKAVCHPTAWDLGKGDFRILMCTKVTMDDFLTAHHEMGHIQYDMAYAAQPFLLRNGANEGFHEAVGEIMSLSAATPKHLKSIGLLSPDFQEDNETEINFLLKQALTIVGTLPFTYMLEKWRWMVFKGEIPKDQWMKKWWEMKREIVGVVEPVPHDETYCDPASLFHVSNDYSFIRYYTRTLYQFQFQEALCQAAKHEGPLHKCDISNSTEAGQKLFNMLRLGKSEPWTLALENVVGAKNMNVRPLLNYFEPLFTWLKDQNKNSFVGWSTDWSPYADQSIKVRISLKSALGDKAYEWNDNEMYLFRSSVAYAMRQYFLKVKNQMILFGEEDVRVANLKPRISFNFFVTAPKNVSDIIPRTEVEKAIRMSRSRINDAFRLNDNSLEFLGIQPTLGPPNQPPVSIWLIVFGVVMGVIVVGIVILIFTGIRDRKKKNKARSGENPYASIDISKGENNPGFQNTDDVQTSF

[10] = profound effect in the distal segment

- long-term stability / degradation ([4]; ambient temperature and humidity, 7 years): no apparent degradation
- water solubility [6]: excellent
- water solubility ([6]; listed as dicarboxylic acid): limited
Compound: CC(C)C[C@H](N[C@@H](Cc1cncn1Cc1cc(Cl)cc(Cl)c1)C(=O)O)C(=O)O [Compound (I), 2-[1-(S)-carboxy-2(S)-[3-(3,5-dichloro-benzyl)-3H-imidazol-4-yl]-ethylamino]-4-methylpentanoic acid]
- anti-inflammatory effects in the upper gastrointestinal tract [1]: exhibits anti-inflammatory effects
- body weight recovery ([2]; 30 mg/kg, by day 15): compete recovery by day 15
- body weight loss and recovery compared with vehicle+DSS group ([2]; 300 mg/kg repeated b.i.d., days 5-15): similar
- disease activity index (fecal occult blood, stool consistency, rectal prolapse) elevated by DSS ([2]; 300 mg/kg, day 7 and day 9): attenuated
- DSS-induced damage in the distal colon (total histopathology score) ([2]; 300 mg/kg, day 15): significantly attenuated
- body weight reduction ([2]; 30 and 100 mg/kg, maximum effects on day 9): exhibited the largest weight reduction
- effect on any DAI parameter ([2]; 30 or 100 mg/kg, all P>0.05): no effects were observed
- DSS-induced colon shrinkage ([2]; day 15, 30 or 100 mg/kg, P>0.05): No effects
- DSS-induced colon shortening ([2]; day 15): reversed
- protection against NSAID-induced gastric damage [3]: protects against NSAID-induced gastric damage
- DSS-induced disease activity, including rectal prolapse and intestinal bleeding [5]: ameliorated
- colon pathology [5, 10]: markedly attenuated
- myeloperoxidase activity [5, 10]: markedly attenuated
- IC50 [7]: > 50 µM
- IC50 [8]: > 50 µM
- ACE2 inhibitor potency and selectivity [9]: potent and selective

Compound: O=C(O)c1cc(/N=N/c2ccc(S(=O)(=O)Nc3ccccn3)cc2)ccc1O [sulfasalazine, reference compound]
- rectal prolapse and bleeding (DAI) ([2]; 150 mg/kg, compared with Compound (I) 300 mg/kg): similarly efficacious
- DSS-induced colon shortening ([2]; day 15): reversed
- body weight recovery compared with vehicle+DSS and Compound (I) 300 mg/kg groups ([2]; sulfasalazine-treated animals, day 15): did not recover to the same extent by day 15

Compound: CC(C)C[C@@H](N[C@H](Cc1cncn1Cc1cc(Cl)cc(Cl)c1)C(=O)O)C(=O)O [R,R isomer, 2-[1-(R)-carboxy-2(R)-[3-(3,5-dichloro-benzyl)-3H-imidazol-4-yl]-ethylamino]-4-methylpentanoic acid, reference compound]
- IC50 ([9]; stereoisomers of Compound (I), per Dales et al., read-out: activity of the isomer (ACE2 inhibition)): > 50 µM

Compound: CC(C)C[C@H](N[C@@H](Cc1cncn1Cc1cc(Cl)cc(Cl)c1)C(=O)[O-])C(=O)[O-].[Na+].[Na+] [disodium salt anhydrate]
- stability ([4]; ambient temperatures): unstable, thermally sensitive, and subject to oxidation at ambient temperatures
